Measurements reported in patent US6534524B1, “Indazole compounds and pharmaceutical compositions for inhibiting protein kinases, and methods for their use” (Agouron Pharmaceuticals, Inc., priority 1999, dated 2003).
Like-named read-outs stand apart in the source and are kept apart here. Marks after values point to notes of the source that are not given here.

Legend:
[1] = Determination of inhibitor concentration in mouse plasma after intraperitoneal and oral dosing; format: in vivo
Method in brief: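 Plasma levels quantified by HPLC or LC-MS using a standard curve prepared in mouse plasma, following ethyl acetate extraction with internal standard and sodium hydroxide. Sampling at 0.5, 1, 4 h (ocular bleed) and 7 h (cardiac puncture) after oral or intraperitoneal dosing.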

[2] = Human liver microsome (HLM) assay; format: in vitro ADME; settings: human liver microsomes, 5 μM test compound
Method: Human Liver Microsome (HLM) Assay Compound metabolism in human liver microsomes was measured by LC-MS analytical assay procedures as follows. […] (3 tubes per test compound-triplicate). […] The samples were then transferred to separate polypropylene microcentrifuge tubes and centrifuged at 14000 g for 10 min. (Fisher Micro […] M0017580). For each replicate (#1-3) at each timepoint (0 and 2 h), an aliquot sample of each test compound was combined into a single HPLC vial insert (6 total samples) for LC-MS analysis, which is described below.

[3] = target: unphosphorylated VEGF-R2Δ50 (FLVK) (Homo sapiens, UniProt P35968, DEL940-989/E990V); test: VEGF-R2 coupled spectrophotometric assay, unphosphorylated VEGF-R2Δ50 (FLVK); settings: FLVK Ki, Table 1
[4] = IP, 25 mg/kg, vehicle PEG400:H2O pH 2.3 60:40
[5] = PO, 50 mg/kg, vehicle PEG400:H2O pH 2.3 60:40
[6] = female, IP, 25 mg/kg, vehicle PEG400:H2O pH 2.3 60:40, read-out: Cmin (7 hr conc.)
[7] = female, PO, 50 mg/kg, vehicle PEG400:H2O pH 2.3 60:40, read-out: Cmin (7 hr conc.)
[8] = PO, 25 mg/kg, vehicle PEG400:H2O pH 2.3 30:70
[9] = female, PO, 25 mg/kg, vehicle PEG400:H2O pH 2.3 30:70
[10] = female, PO, 25 mg/kg, vehicle PEG400:H2O pH 2.3 30:70, read-out: Cmin (7 hr conc.)
[11] = IP, 25 mg/kg, vehicle PEG400:H2O pH 2.3 30:70
[12] = PO, 50 mg/kg, vehicle PEG400:H2O pH 2.3 30:70
[13] = female, IP, 25 mg/kg, vehicle PEG400:H2O pH 2.3 30:70, read-out: Cmin (7 hr conc.)
[14] = female, PO, 50 mg/kg, vehicle PEG400:H2O pH 2.3 30:70, read-out: Cmin (7 hr conc.)
[15] = female, IP, 25 mg/kg, vehicle PEG400:H2O pH 2.3 30:70

unphosphorylated VEGF-R2Δ50 (FLVK), sequence (P35968 with tags, fused parts or gaps DEL940-989/E990V limits assumed): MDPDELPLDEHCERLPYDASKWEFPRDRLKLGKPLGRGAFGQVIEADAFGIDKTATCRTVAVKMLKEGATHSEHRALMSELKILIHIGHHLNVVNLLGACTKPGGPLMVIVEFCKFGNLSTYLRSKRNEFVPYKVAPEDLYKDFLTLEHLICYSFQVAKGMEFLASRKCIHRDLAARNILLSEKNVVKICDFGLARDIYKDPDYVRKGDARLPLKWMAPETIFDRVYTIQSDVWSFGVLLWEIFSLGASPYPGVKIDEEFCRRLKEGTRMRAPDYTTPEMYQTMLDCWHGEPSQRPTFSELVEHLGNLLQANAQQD

For `O=C(Nc1cccc(C(=O)c2ccc3c(/C=C/c4ccccc4)n[nH]c3c2)c1)c1ccncc1` [Example 19(j), 6-[3-(Pyridin-4-ylcarboxamido)benzoyl]-3-E-styryl-1H-indazole], the AUClast [1, 4] was 23.205 µg·h/mL, the Cmax [1, 4] was 5.764 µg/mL and the “plasma half-life (T1/2)” value [1, 4] was 1.6 h. The AUClast [1, 5] was 5.889 µg·h/mL, the Cmax [1, 5] was 1.937 µg/mL and the “plasma half-life (T1/2)” value [1, 5] was 1.2 h. For the same compound, the concentration at 7 h [1, 6] was 0.456 µg/mL, the concentration at 7 h [1, 7] was 0.063 µg/mL and the “% remain (HLM, 2 h)” value [2] was 66%. It also gave a Ki [3] of 0.33 nM.
With `C=CCn1nc(C)cc1C(=O)Nc1cccc(C(=O)c2ccc3c(/C=C/c4ccccn4)n[nH]c3c2)c1` [Example 41(t), 6-[3-((1-Allyl-3-methyl-1H-pyrazol-5-yl)carboxamido)benzoyl]-3-E-[2-(pyridin-2-yl)ethenyl]-1H-indazole] the “plasma half-life (T1/2)” value [1, 8] was 4.0 h, the AUC(0-t) [1, 9] was greater than 22.5 µg·h/mL and the concentration at 7 h [1, 10] was 1.35 µg/mL. The “% remain (HLM, 2 h)” value [2] was 87% and the Ki [3] was 0.06 nM.
With `Cn1ccnc1C(=O)Nc1cccc(Oc2ccc3c(/C=C/c4ccccn4)n[nH]c3c2)c1` [Example 31(e), 6-[3-((1-Methylimidazol-2-yl)carboxaniido)phenoxy]-3-E-[2-(pyridin-2-yl)ethenyl]-1H-indazole] the “plasma half-life (T1/2)” value [1, 8] was 13.1 h, the AUC(0-t) [1, 9] was greater than 30.3 µg·h/mL and the concentration at 7 h [1, 10] was 2.95 µg/mL. For the same compound, the “% remain (HLM, 2 h)” value [2] was 49% and the Ki [3] was 0.02 nM.
With `O=C(NCC(F)(F)F)c1ccccc1Sc1ccc2c(/C=C/c3ccccn3)n[nH]c2c1` [Example 33(f), 6-[2-(2,2,2-Trifluoroethylcarbamoyl)phenylsulfanyl]-3-E-[2-(pyridin-2-yl)ethenyl]-1H-indazole] the AUClast [1, 11] was 1.887 µg·h/mL, the “plasma half-life (T1/2)” value [1, 11] was 2.4 h and the AUClast [1, 12] was 1.436 µg·h/mL. The “plasma half-life (T1/2)” value [1, 12] was 0.7 h, the concentration at 7 h [1, 13] was 0.006 µg/mL and the concentration at 7 h [1, 14] was 0.003 µg/mL. The “% remain (HLM, 2 h)” value [2] was 31% and the Ki [3] was 8 nM.
With `O=C(NC1CC1)c1ccccc1Sc1ccc2c(/C=C/c3ccccn3)n[nH]c2c1` [Example 33(e), 6-[2-(Cyclopropylcarbamoyl)phenylsulfanyl]-3-E-[2-(pyridin-2-yl)ethenyl]-1H-1H-indazole] the AUClast [1, 11] was 14.323 µg·h/mL, the “plasma half-life (T1/2)” value [1, 11] was 1.0 h and the AUClast [1, 12] was 13.29 µg·h/mL. The “plasma half-life (T1/2)” value [1, 12] was 0.7 h, the concentration at 7 h [1, 13] was 0.094 µg/mL and the concentration at 7 h [1, 14] was 0.012 µg/mL. For the same compound, the “% remain (HLM, 2 h)” value [2] was 54% and the Ki [3] was 1.7 nM.
With `Cc1cc(C(=O)Nc2cccc(C(=O)c3ccc4c(/C=C/c5ccccn5)n[nH]c4c3)c2)on1` [Example 41(m), 6-[3-((3-Methylisoxazol-5-yl)carboxamido)benzoyl]-3-E-[2-(pyridin-2-yl)ethenyl]-1H-indazole] the AUClast [1, 11] was 1.864 µg·h/mL, the “plasma half-life (T1/2)” value [1, 11] was 2.3 h and the AUClast [1, 12] was 0.009 µg·h/mL. The Cmax [1, 12] was 0.005 µg/mL, the “plasma half-life (T1/2)” value [1, 12] was “blq” and the “% remain (HLM, 2 h)” value [2] was 0%. The Ki [3] was 0.75 nM.
With `O=C(Nc1cccc(C(=O)c2ccc3c(-c4nc5ccccc5[nH]4)n[nH]c3c2)c1)c1ccccc1` [Example 42(b), 6-(3-Benzamidobenzoyl)-3-(1H-benzoimidazol-2-yl)-1H-indazole] the AUClast [1, 4] was 3.207 µg·h/mL, the “plasma half-life (T1/2)” value [1, 4] was 3.0 h and the AUClast [1, 5] was 4.747 µg·h/mL. The “plasma half-life (T1/2)” value [1, 5] was 3.0 h, the concentration at 7 h [1, 6] was 0.211 µg/mL and the concentration at 7 h [1, 7] was 0.046 µg/mL. For the same compound, the “% remain (HLM, 2 h)” value [2] was 81% and the Ki [3] was 0.35 nM.
Compound `O=C(NCc1cccc(F)c1)c1ccccc1Sc1ccc2c(/C=C/c3ccccn3)n[nH]c2c1` [Example 35(ff)] has an AUC(0-t) [1, 15] greater than 6.3 µg·h/mL, a Cmax ([1]; female, IP, 25 mg/kg, vehicle PEG400:H2O pH 2.3 30:70, read-out: Cmax) greater than 4 µg/mL and a concentration at 7 h [1, 13] of 0.072 µg/mL. The “% remain (HLM, 2 h)” value [2] was 31% and the Ki [3] was 0.11 nM.
For `O=C(Nc1cccc(Oc2ccc3c(/C=C/c4ccccn4)n[nH]c3c2)c1)c1ccccc1` [Example 31(a), 6-[3-Benzamidophenoxy]-3-E-[2-(pyridin-2-yl)ethenyl]-1H-indazole], the AUClast [1, 11] was 47.538 µg·h/mL, the Cmax [1, 11] was 13.018 µg/mL and the “plasma half-life (T1/2)” value [1, 11] was 2.4 h. For the same compound, the AUClast [1, 12] was 40.863 µg·h/mL, the Cmax [1, 12] was 14.499 µg/mL and the “plasma half-life (T1/2)” value [1, 12] was 1.6 h. The concentration at 7 h [1, 13] was 1.91 µg/mL, the concentration at 7 h [1, 14] was 0.834 µg/mL and the “% remain (HLM, 2 h)” value [2] was 58%. For the same compound, the Ki [3] was 0.29 nM.
For `Cc1cnc(C(=O)Nc2cccc(N(C)c3ccc4c(/C=C/c5ccccc5)n[nH]c4c3)c2)s1` [Example 12(d), 5-Methyl-thiazole-2-carboxylic Acid {3-[Methyl-(3-styryl-1H-indazol-6-yl)-amino]-phenyl}-amide], the “% remain (HLM, 2 h)” value [2] was 51% and the Ki [3] was 0.39 nM.
In the case of `Cc1cnc(C(=O)Nc2cccc(C(=O)c3ccc4c(/C=C/c5ccccc5)n[nH]c4c3)c2)s1` [Example 19(d), 5-Methyl-thiazole-2-carboxylic Acid[3-(3-styryl-1H-indazole-6-carbonyl)-phenyl]-amide], the “% remain (HLM, 2 h)” value [2] is reported as 36% and the Ki [3] is reported as 0.72 nM.
With `O=C(Nc1cccc(Nc2ccc3c(/C=C/c4ccccc4)n[nH]c3c2)c1)c1ccccc1` [Example 13, N-[3-(3-Styryl-1H-indazol-6-ylamino)-phenyl]-benzamide] the “% remain (HLM, 2 h)” value [2] was 69% and the Ki [3] was 1.3 nM.
With `O=C(c1cccc(NC(=O)c2ccc(Cl)s2)c1)c1ccc2c(/C=C/c3ccccn3)n[nH]c2c1` [Example 41(o), 6-[3-((5-Chlorothien-2-yl)carboxamido)benzoyl]-3-E-[2-(pyridin-2-yl)ethenyl]-1H-indazole] the AUClast [1, 12] was 14.717 µg·h/mL, the “plasma half-life (T1/2)” value [1, 12] was 1.7 h and the AUC(0-t) [1, 15] was greater than 33.8 µg·h/mL. The concentration at 7 h [1, 13] was greater than 5 µg/mL, the concentration at 7 h [1, 14] was 0.427 µg/mL and the “% remain (HLM, 2 h)” value [2] was 94%. The Ki [3] was 0.05 nM.
With `O=C(Nc1ccccc1)c1ccccc1Sc1ccc2c(/C=C/c3ccccn3)n[nH]c2c1` [Example 33(c), 6-[2-(Phenylcarbamoyl)phenylsulfanyl]-3-E-[2-(pyridin-2-yl)ethenyl]-1H-indazole] the AUClast [1, 11] was 0.697 µg·h/mL, the Cmax [1, 11] was 0.505 µg/mL and the “plasma half-life (T1/2)” value [1, 11] was 1.2 h. The AUClast [1, 12] was 0.183 µg·h/mL, the Cmax [1, 12] was 0.094 µg/mL and the “plasma half-life (T1/2)” value [1, 12] was 3.0 h. For the same compound, the concentration at 7 h [1, 13] was 0.007 µg/mL, the concentration at 7 h [1, 14] was 0.005 µg/mL and the “% remain (HLM, 2 h)” value [2] was 16%. It also gave a Ki [3] of 0.28 nM.
For `O=C(Nc1cccc(Oc2ccc3c(/C=C/c4ccc(Cl)cc4)n[nH]c3c2)c1)c1ccccc1` [Example 6(a), N-(3-{3-[2-(4-Chloro-phenyl)-vinyl]-1H-indazol-6-yloxy}-phenyl)-benzamide], the “% remain (HLM, 2 h)” value [2] was 69* % and the Ki [3] was 0.74 nM.
For `Cc1cc(C(=O)Nc2cccc(C(=O)c3ccc4c(/C=C/c5ccccn5)n[nH]c4c3)c2)n[nH]1` [Example 41(g), 6-[3-((5-Methyl-1H-pyrazol-3-yl)carboxamido)benzoyl]-3-E-[2-(pyridin-2-yl)ethenyl]-1H-indazole], the AUClast [1, 4] was 1.925 µg·h/mL, the “plasma half-life (T1/2)” value [1, 4] was 0.3 h and the AUClast [1, 5] was 0.508 µg·h/mL. For the same compound, the “plasma half-life (T1/2)” value [1, 5] was 0.7 h, the concentration at 7 h [1, 6] was 0 µg/mL and the concentration at 7 h [1, 7] was 0.001 µg/mL. For the same compound, the “% remain (HLM, 2 h)” value [2] was 52% and the Ki [3] was 0.1 nM.
For `O=C(c1cccc(NC(=O)c2cccc(Cl)n2)c1)c1ccc2c(/C=C/c3ccccc3)n[nH]c2c1` [Example 19(m), 6-[3-(6-Chloropyridin-2-ylcarboxamido)benzoyl]-3-E-styryl-1H-indazole], the “% remain (HLM, 2 h)” value [2] was 61% and the Ki [3] was 0.68 nM.
In the case of `CN(c1cccc(NC(=O)c2ccccc2)c1)c1ccc2c(/C=C/c3ccc4c(c3)OCO4)n[nH]c2c1` [Example 16(a), N-(3-{[3-(2Benzo[1,3]dioxol-5-yl-vinyl)-1H-indazol-6-yl]-methyl-amino}-phenyl)-benzanide], the “% remain (HLM, 2 h)” value [2] is reported as 7* % and the Ki [3] is reported as 0.08 nM.
In the case of `CC(=O)c1ccc(C(=O)Nc2cccc(C(=O)c3ccc4c(/C=C/c5ccccn5)n[nH]c4c3)c2)s1` [Example 41(e), 6-[3-((5-Acetylthien-2-yl)carboxamido)benzoyl]-3-E-[2-(pyridin-2-yl)ethenyl]-1H-indazole], the AUClast [1, 4] is reported as 4.9 µg·h/mL, the Cmax [1, 4] is reported as 1.154 µg/mL and the “plasma half-life (T1/2)” value [1, 4] is reported as 1.6 h. The AUClast [1, 5] was 0.302 µg·h/mL, the Cmax [1, 5] was 0.113 µg/mL and the “plasma half-life (T1/2)” value [1, 5] was 1.6 h. For the same compound, the concentration at 7 h [1, 6] was 0.301 µg/mL, the concentration at 7 h [1, 7] was 0.007 µg/mL and the “% remain (HLM, 2 h)” value [2] was 22%. It also gave a Ki [3] of 0.22 nM.
